How the values were obtained:
[1] = system: non-small cell lung cancer cell line H460; assay: In vitro human cancer cell line cytotoxicity (proliferation) assay in H460, CellTiter-Glo, 72 hours; assay type: cell-based; details: H460 cells, DMSO condition (no AKR1C3 inhibitor), read-out: CTG H460: Avg IC50 (nM) [Assay Condition: DMSO]
Description: Biological Example 1. In Vitro Human Cancer Cell Line Cytotoxicity Assay
IC50 values in nanomolar reported here were derived from in vitro proliferation assay data in non-small cell lung cancer cell line H460.
(§1) Specifically, exponentially growing cells were seeded at density of 3×10^3 cells per well in 96-well plate and incubated at 37° C. in 5% CO2, 95% air and 100% relative humidity for 24 hours before adding compounds. Compounds were solubilized in 100% DMSO at 10 mM. Compounds were added to the plate using Tecan D300e® digital Dispenser. After drug addition, the plates were incubated for an additional 72 hours at 37° C. in 5% CO2, 95% air and 100% relative humidity. At the end of the incubation, cell viability was quantified with CellTiter-Glo® assay.

[2] = system: non-small cell lung cancer cell line H460; assay: H460 proliferation assay in the presence of 3 uM ASP9521 (AKR1C3 specific inhibitor); assay type: cell-based, human; details: H460 cells, CellTiter-Glo, 72 hours, in the presence of 3 uM ASP9521 added 4 hours prior to compounds; read-out: CTG H460: Avg IC50 (nM) [Assay Condition: ASP9521]
Description: as §1
To further confirm that compounds were activated by human AKR1C3, H460 proliferation assay were also performed in the presence of 3 uM […], an AKR1C3 specific inhibitor. ASP9521 were added to the plates 4 hours prior to the addition of compounds.

| Compound | IC50 ([1]; Homo sapiens, NCI-H460, 72 h) [nM] | IC50 [2] [nM] | IC50 [1] [nM] |
| --- | --- | --- | --- |
| O=[N+]([O-])c1ccc2c(c1Oc1ccccc1)CCC2OP(=O)(N1CC1)N1CC1 (stereo not drawn) [Example 16, 5-nitro-4-phenoxy-2,3-dihydro-1H-inden-1-yl di(aziridin-1-yl)phosphinate] | 10 to 50 | 261 |  |
| O=[N+]([O-])c1ccc2c(c1Oc1ccc(-c3ccc(F)cc3)cc1)CCC2OP(=O)(N1CC1)N1CC1 (stereo not drawn) [Example 21] | < 10 | 1420 |  |
| O=[N+]([O-])c1ccc2c(c1Oc1ccc(-c3ccc(F)cc3)cc1)CCC2OP(=O)(N1CC1)N1CC1 (stereo not drawn) [Example 22] |  | 1640 | 10 to 50 |
| CN1Cc2ccc(Oc3c([N+](=O)[O-])ccc4c3CCC4OP(=O)(N3CC3)N3CC3)cc2C1=O (stereo not drawn) [Example 23] | < 10 | 75.9 |  |
| CN1Cc2ccc(Oc3c([N+](=O)[O-])ccc4c3CCC4OP(=O)(N3CC3)N3CC3)cc2C1=O (stereo not drawn) [Example 24] |  | 916 | < 10 |
| O=[N+]([O-])c1ccc2c(c1Oc1ccc(C(F)(F)F)nc1)CCC2OP(=O)(N1CC1)N1CC1 (stereo not drawn) [Example 25] | < 10 | 92.9 |  |
| O=[N+]([O-])c1ccc2c(c1Oc1ccc(C(F)(F)F)nc1)CCC2OP(=O)(N1CC1)N1CC1 (stereo not drawn) [Example 26] |  | 298 | < 10 |
| O=[N+]([O-])c1ccc2c(c1Oc1ccc(-c3ccc(F)cn3)c(F)c1)CCC2OP(=O)(N1CC1)N1CC1 (stereo not drawn) [Example 29] | < 10 | 1220 |  |
| O=C(c1ccc(Oc2c([N+](=O)[O-])ccc3c2CCC3OP(=O)(N2CC2)N2CC2)cc1)N1CCOCC1 (stereo not drawn) [Example 34] | 10 to 50 | 822 |  |
| O=C(c1ccc(Oc2c([N+](=O)[O-])ccc3c2CCC3OP(=O)(N2CC2)N2CC2)cc1)N1CCOCC1 (stereo not drawn) [Example 35] |  | 472 | < 10 |
| CNC(=O)c1ccc(Oc2c([N+](=O)[O-])ccc3c2CCC3OP(=O)(N2CC2)N2CC2)cc1 (stereo not drawn) [Example 36] | 10 to 50 | 527 |  |
| CNC(=O)c1ccc(Oc2c([N+](=O)[O-])ccc3c2CCC3OP(=O)(N2CC2)N2CC2)cc1 (stereo not drawn) [Example 37] |  | 178 | < 10 |
| O=[N+]([O-])c1ccc2c(c1Oc1ccc(-c3ccc(Cl)cc3)cc1)CCC2OP(=O)(N1CC1)N1CC1 (stereo not drawn) [Example 44] |  | 1940 | ≥ 100 |
| O=[N+]([O-])c1ccc2c(c1Oc1ccc(-c3ccc(Cl)cc3)cc1)CCC2OP(=O)(N1CC1)N1CC1 (stereo not drawn) [Example 45] |  | 5550 | 10 to 50 |
| Cn1cccc(-c2ccc(Oc3c([N+](=O)[O-])ccc4c3CCC4OP(=O)(N3CC3)N3CC3)cc2)c1=O (stereo not drawn) [Example 48] |  | 1010 | ≥ 100 |
| Cn1cccc(-c2ccc(Oc3c([N+](=O)[O-])ccc4c3CCC4OP(=O)(N3CC3)N3CC3)cc2)c1=O (stereo not drawn) [Example 49] |  | 920 | < 10 |
| O=[N+]([O-])c1ccc2c(c1Oc1ccc(-c3ccccc3)nc1)CCC2OP(=O)(N1CC1)N1CC1 (stereo not drawn) [Example 50] | < 10 | 335 |  |
| O=[N+]([O-])c1ccc2c(c1Oc1ccc(-c3ccccc3)nc1)CCC2OP(=O)(N1CC1)N1CC1 (stereo not drawn) [Example 51] |  | 327 | < 10 |
| O=C(NC1CCC1)c1ccc(Oc2c([N+](=O)[O-])ccc3c2CCC3OP(=O)(N2CC2)N2CC2)cc1 (stereo not drawn) [Example 52] | 10 to 50 | 700 |  |
| O=C(NC1CCC1)c1ccc(Oc2c([N+](=O)[O-])ccc3c2CCC3OP(=O)(N2CC2)N2CC2)cc1 (stereo not drawn) [Example 53] |  | 945 | < 10 |
| O=C1c2ccc(Oc3c([N+](=O)[O-])ccc4c3CCC4OP(=O)(N3CC3)N3CC3)cc2CN1C1CC1 (stereo not drawn) [Example 56] | < 10 | 447 |  |
| O=C1c2ccc(Oc3c([N+](=O)[O-])ccc4c3CCC4OP(=O)(N3CC3)N3CC3)cc2CN1C1CC1 (stereo not drawn) [Example 57] |  | 219 | < 10 |
| Cn1cc(-c2ccc(Oc3c([N+](=O)[O-])ccc4c3CCC4OP(=O)(N3CC3)N3CC3)cc2)ccc1=O (stereo not drawn) [Example 60] |  | 1010 | ≥ 100 |
| Cn1cc(-c2ccc(Oc3c([N+](=O)[O-])ccc4c3CCC4OP(=O)(N3CC3)N3CC3)cc2)ccc1=O (stereo not drawn) [Example 61] |  | 1010 | 10 to 50 |

Source: patent US20260167656A1, “PHOSPHORAMIDATE COMPOUNDS AND USES THEREOF” (ALLORION THERAPEUTICS INC, priority 2022, published 2026)
